This is an account of results in US20190022198A1, “Individualized Immunomodulation Therapy for Neurodegenerative Disorders, CNS Injury and Age-Related Dementia” (Yeda Research and Development Co. Ltd., priority 2012, published 2019).

The conditions of test [1]: daily administration, subjects receiving daily injections; cited from earlier work.
The test system of test [2] is 5XFAD mice. The experiment in a line: Cop 1 (GA) vaccination regimens in 5XFAD mice: FoxP3+ T cells in spleen (FACS) and CP (staining). In kind it is in vivo, mouse. As for the experimental part: For intracellular staining of IFN-γ or IL-17, the cells were incubated with PMA (10 ng/ml; Sigma-Aldrich) and ionomycin (250 ng/ml; Sigma-Aldrich) for 6 h, and Brefeldin-A ([…]; Sigma-Aldrich) was added for the last 4 h. Intracellular labeling of cytokines was done with BD Cytofix/Cytoperm Plus Fixation/Permeabilization kit (cat. no. 555028) according to the manufacturer's protocol. Intracellular staining of FoxP3 was performed using the FoxP3 staining kit (eBioscience) according to the manufacturer's protocol. The following fluorochrome-labeled mAbs were used according to the manufacturers' protocols: FITC-conjugated anti-TCRβ, FITC-conjugated anti-CD44, PE-conjugated anti-CD4, PE-conjugated anti-IL-17A, APC-conjugated anti-IFN-γ, FITC-conjugated anti-CD45.2, Alexa-700-conjugated anti-CD45.2, Percp-Cy5.5-conjugated anti-TCRβ (all from BioLegend), and APC-conjugated anti-FoxP3 (eBioscience). Flow cytometry analysis was performed on each sample using a BD Biosciences LSRII flow cytometer, and the acquired data were analyzed using FlowJo software (Tree star). In each experiment, relevant negative control groups and single stained samples for each tissue were used to determine the populations of interest and to exclude others.
For whole mount staining of the choroid plexus, isolated tissues were fixed with 2.5% paraformaldehyde (PFA) for several hours, and subsequently transferred to PBS containing 0.05% sodium azide. Prior to staining, the dissected tissues were washed and blocked (20% horse serum, 0.3% Triton X-100, and PBS) for 1 h at room temperature with shaking. Whole mount staining with primary (in PBS containing 2% horse serum and 0.3% Triton X-100) and secondary antibodies (in PBS), was performed for 1h at room temperature, with shaking. Each step was followed by three washes in PBS. […] For morphological quantification, average cross-sectional area of epithelial cells was measured following Nissl staining. Cell borders (20-25 cells per picture) were marked and the area was quantified using Image-Pro Plus software in a blinded fashion. […]

For test [3], the system named is 5XFAD mice. The experiment in a line: Radial arm water maze (RAWM) in GA vaccinated 5XFAD mice. The test is classed as in vivo, mouse. As for the experimental part:
Mice were tested for two days on 6 radial arm water maze paradigm in a water pool, as described in Alamed et al., Nat Protoc. 2006, 1(4), 1671-1679. Briefly, mice received an injection of GA as indicated in the examples. On the first day, 15 trials were performed, in trials 1, 3, 5, 7, 9 and 11 the platform was visible, and in all other trials the platform was hidden. On the second day, 12 trials were performed, all of them with hidden platform. The time required to reach the platform and the number of errors (incorrect arm entries) in 1-min time period was recorded.
To test the effect of different regimens of administration of Cop 1, 5XFAD females were vaccinated subcutaneously (S.C.) with 100 μg Cop 1 dissolved in 200 μl PBS. Three different regimens were compared: 5XFAD+2GA were vaccinated twice, with the second injection given three days after the first; 5XFAD+5GA were vaccinated five times, twice in the first week and once a week for another three weeks, and 5XFAD+daily GA were vaccinated every day for 28 days (19B). One day after the last GA injection, mice were sacrificed and their spleens were analyzed by FACS and compared to WT and untreated 5XFAD littermates. […] Radial arm water maze (RAWM) was performed to 4 groups of 8 months old mice to test mental cognitive performance. […]

As for Glatiramer Acetate [GA], the “level of Treg cells in the blood” value in test [1] is “raises the level of Treg cells in the blood”. For the same substance, in the test with 5XFAD mice [2] (2GA: vaccinated twice, second injection three days after the first, 100 μg S.C., compared to untreated 5XFAD), the “fold change of FoxP3+ T cells in spleen” value is “significant decrease in the fold change of FoxP3^+ T cells”. In addition, in the test with 5XFAD mice [2] (5XFAD+5GA, compared to untreated 5XFAD littermates), the “incidence of FoxP3+CD3+ T cells in the CP” value was “decreased”. The “FoxP3+ T cells in the spleens” value with 5XFAD mice [2] (daily GA: every day for 28 days, 100 μg S.C.) is on record as “promoted the enrichment of FoxP3^+ T cells”. Moreover, the “RAWM performance (mental cognitive performance)” value is reported as “performed as badly as the unvaccinated 5XFAD mice” in the test on 5XFAD mice [3] (daily administration of GA for 28 days); “significantly improved” in the test on 5XFAD mice [3] (weekly GA: twice in the first week and once a week for another 3 weeks, compared to unvaccinated 5XFAD).
